Test results as given in US8110657B2, “Polypeptides and polynucleotides for enhancing immune reactivity to HER-2 protein” (priority 1999, dated 2012).

Test system: autologous targets
Experiment: CTL assay (chromium release)
Type: cell-based
Details: two in vitro re-stimulations, IL-2 added

In the case of “DW2: amino acids 391-399 of the HER-2 protein, T cell epitope (PLQPEQLQV; UniProt P04626 391-399, looked up, fragment)”, the “CTL lysis of targets” value was “able to specifically lyse autologous targets in a dose dependent manner”.
